{"source": "patent US11312676B2", "about": "“Small molecule stimulators of steroid receptor coactivator proteins and their use in the treatment of cancer” (BAYLOR COLLEGE OF MEDICINE, priority 2014, dated 2022)", "assay_type_in_all_cases": "cell-based", "key": {"SRC-3": {"target": "T1, SRC-3 (Homo sapiens, UniProt Q9Y6Q9)", "T1 construct": "expressed in transfected cells; host or cells: HeLa", "T1 sequence (Q9Y6Q9 whole entry, the tested form may be a part)": "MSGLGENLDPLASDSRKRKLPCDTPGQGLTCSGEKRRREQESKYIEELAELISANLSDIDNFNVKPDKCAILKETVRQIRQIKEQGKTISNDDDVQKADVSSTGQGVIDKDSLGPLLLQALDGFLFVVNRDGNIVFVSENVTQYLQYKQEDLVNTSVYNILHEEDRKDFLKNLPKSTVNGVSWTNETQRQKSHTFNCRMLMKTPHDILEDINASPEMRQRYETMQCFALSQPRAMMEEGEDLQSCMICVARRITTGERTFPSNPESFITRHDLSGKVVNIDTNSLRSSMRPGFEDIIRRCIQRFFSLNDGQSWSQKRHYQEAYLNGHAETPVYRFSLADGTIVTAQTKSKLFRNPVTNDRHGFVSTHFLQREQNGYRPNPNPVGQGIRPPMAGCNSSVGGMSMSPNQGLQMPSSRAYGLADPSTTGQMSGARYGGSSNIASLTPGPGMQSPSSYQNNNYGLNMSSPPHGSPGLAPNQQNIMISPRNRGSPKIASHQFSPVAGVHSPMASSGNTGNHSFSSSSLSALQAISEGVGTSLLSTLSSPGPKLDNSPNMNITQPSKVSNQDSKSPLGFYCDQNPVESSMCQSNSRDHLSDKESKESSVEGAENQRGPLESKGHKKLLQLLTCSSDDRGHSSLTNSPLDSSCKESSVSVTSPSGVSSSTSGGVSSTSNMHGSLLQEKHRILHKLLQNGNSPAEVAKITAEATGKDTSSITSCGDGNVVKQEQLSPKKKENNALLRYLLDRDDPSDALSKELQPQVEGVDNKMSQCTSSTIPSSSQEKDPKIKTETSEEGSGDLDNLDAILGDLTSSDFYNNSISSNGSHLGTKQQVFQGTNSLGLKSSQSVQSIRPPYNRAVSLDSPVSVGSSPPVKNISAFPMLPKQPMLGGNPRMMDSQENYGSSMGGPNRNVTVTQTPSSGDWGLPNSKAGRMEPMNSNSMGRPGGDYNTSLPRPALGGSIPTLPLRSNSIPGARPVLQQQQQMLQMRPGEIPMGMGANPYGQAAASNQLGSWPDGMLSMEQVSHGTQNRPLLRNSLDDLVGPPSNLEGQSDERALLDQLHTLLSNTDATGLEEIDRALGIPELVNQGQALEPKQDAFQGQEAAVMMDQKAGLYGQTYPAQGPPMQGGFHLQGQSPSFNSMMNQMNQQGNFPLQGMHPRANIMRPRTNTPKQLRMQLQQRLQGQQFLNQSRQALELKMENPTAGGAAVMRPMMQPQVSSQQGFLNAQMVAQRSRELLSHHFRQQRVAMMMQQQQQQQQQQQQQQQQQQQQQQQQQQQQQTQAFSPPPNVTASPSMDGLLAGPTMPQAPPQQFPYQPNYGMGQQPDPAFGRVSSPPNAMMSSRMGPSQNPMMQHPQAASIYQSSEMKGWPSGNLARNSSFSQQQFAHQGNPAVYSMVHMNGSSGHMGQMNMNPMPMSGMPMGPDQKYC", "assay": "Gal4 luciferase reporter assay (pBIND-SRC-3 + pG5-LUC) in HeLa cells", "settings": "for effect on activation of SRC-3 by MCB-613: co-treatment with MCB-613, 24 hours; for intrinsic transcriptional activity of SRC-3: 24 hours, additional paraptosis agents", "procedure": "(§1) The constructs expressing the Gal4 responsive luciferase reporter (pG5-luc), Gal4 DBD fusion with SRC-1, […] (pBIND-SRC-1/-2/-3), MMP2 or MMP13 promoter driven luciferase reporter (MMP2-luc, MMP13-luc) were prepared. Twenty-four hours before transfection, HeLa cells were plated in 24-well dishes. The indicated expression plasmids were transfected into cells using Lipofectamine 2000 according to the manufacturer's instructions.\n(§2) After various compound treatments, cells were lysed in luciferase lysis buffer and assayed for luciferase activity using the ONE-Glo luciferase assay system (Promega, Madison, Wis.). All luciferase activities were normalized to protein concentration determined by Bradford assay (Bio-Rad, Hercules, Calif.).\nHeLa cells were transfected with a Gal4 responsive luciferase reporter (pG5-luc) and a construct encoding SRC-1, SRC-2 or SRC-3 fused with the DNA binding domain of Gal4 (pBIND-SRC-1, pBIND-SRC-2 or pBIND-SRC-3) were treated with the indicated compounds."}, "SRC-1": {"target": "SRC-1 (Homo sapiens, UniProt Q15788)", "sequence (Q15788 whole entry, the tested form may be a part)": "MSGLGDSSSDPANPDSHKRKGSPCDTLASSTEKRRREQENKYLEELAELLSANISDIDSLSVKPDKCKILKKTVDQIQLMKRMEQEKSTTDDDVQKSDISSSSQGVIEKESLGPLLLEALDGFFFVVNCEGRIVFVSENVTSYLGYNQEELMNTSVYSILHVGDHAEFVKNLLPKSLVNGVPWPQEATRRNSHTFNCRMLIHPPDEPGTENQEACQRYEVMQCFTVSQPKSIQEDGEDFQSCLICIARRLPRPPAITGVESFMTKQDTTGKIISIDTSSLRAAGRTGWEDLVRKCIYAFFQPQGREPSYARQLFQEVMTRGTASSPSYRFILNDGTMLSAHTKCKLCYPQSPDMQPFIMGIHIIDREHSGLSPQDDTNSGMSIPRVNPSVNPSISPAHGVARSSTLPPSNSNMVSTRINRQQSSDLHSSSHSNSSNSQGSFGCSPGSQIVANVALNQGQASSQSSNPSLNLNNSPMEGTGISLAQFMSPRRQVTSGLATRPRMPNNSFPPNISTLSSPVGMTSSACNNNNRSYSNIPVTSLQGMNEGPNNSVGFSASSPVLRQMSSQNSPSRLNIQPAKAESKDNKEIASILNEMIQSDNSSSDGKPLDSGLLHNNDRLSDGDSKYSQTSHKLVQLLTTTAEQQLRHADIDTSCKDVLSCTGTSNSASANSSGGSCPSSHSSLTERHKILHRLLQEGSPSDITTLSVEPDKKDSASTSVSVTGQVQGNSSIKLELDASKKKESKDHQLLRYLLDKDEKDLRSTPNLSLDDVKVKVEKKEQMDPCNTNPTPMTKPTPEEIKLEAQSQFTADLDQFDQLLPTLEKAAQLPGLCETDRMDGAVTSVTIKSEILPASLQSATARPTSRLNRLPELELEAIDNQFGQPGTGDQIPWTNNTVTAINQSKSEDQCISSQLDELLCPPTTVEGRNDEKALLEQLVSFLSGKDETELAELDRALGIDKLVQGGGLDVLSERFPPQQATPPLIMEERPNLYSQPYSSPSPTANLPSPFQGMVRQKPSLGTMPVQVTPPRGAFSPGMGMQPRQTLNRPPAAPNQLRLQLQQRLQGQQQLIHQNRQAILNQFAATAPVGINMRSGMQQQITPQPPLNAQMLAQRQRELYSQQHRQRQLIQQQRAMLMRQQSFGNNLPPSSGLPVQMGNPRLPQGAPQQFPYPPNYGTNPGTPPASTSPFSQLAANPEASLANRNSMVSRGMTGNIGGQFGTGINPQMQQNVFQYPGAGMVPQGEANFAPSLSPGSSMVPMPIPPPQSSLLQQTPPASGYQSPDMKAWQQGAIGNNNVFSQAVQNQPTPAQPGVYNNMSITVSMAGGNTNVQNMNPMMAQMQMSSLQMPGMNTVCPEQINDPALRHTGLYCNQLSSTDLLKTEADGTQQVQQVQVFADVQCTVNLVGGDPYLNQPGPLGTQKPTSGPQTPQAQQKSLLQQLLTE", "assay": "Gal4 luciferase reporter assay (pBIND-SRC-1 + pG5-LUC) in HeLa cells", "design": "expressed in transfected cells; host or cells: HeLa", "settings": "for intrinsic transcriptional activity of SRC-1: 24 hours, additional paraptosis agents", "procedure": "as §1, §2"}, "SRC-2": {"target": "T2, SRC-2 (Homo sapiens, UniProt Q15596)", "T2 construct": "expressed in transfected cells; host or cells: HeLa", "T2 sequence (Q15596 whole entry, the tested form may be a part)": "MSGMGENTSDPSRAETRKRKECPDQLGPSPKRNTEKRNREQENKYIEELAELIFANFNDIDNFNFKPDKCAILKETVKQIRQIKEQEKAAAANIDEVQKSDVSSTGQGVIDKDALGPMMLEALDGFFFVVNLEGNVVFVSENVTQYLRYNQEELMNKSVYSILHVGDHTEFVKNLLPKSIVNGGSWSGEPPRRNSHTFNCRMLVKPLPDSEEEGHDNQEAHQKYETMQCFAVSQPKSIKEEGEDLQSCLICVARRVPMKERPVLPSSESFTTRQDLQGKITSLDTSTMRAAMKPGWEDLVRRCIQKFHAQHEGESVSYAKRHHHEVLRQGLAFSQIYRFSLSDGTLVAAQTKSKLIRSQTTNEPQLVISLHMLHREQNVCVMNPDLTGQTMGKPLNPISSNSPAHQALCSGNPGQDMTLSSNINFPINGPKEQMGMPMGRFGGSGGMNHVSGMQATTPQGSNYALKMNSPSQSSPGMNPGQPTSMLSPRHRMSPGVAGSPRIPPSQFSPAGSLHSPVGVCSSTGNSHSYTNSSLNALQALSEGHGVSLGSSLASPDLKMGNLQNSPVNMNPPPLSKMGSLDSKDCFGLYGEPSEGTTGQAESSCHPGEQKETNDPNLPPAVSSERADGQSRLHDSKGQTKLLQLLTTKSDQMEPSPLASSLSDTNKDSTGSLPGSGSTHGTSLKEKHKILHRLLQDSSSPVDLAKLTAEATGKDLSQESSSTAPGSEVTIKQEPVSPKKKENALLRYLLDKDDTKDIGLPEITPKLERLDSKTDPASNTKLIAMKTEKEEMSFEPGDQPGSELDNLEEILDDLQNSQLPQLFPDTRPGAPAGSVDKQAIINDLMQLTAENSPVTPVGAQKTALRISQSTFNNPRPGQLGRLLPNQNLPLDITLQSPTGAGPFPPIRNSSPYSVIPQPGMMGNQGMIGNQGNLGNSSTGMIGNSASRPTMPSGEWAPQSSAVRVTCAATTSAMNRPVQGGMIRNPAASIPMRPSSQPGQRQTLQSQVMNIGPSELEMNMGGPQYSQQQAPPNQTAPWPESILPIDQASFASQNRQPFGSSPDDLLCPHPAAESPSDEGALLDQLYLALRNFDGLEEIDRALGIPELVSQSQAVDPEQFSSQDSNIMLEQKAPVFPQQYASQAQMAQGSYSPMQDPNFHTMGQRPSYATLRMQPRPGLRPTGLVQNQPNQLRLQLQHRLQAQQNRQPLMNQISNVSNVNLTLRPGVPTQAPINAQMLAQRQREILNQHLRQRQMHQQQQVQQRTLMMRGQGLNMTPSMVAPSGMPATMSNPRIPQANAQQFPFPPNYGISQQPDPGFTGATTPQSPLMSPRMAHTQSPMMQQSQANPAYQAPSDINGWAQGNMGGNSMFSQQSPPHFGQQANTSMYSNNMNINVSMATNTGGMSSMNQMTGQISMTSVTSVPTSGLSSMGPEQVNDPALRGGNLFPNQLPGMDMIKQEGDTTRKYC", "assay": "Gal4 luciferase reporter assay (pBIND-SRC-2 + pG5-LUC) in HeLa cells", "settings": "for intrinsic transcriptional activity of SRC-2: 24 hours, additional paraptosis agents", "procedure": "as §1, §2"}, "HeLa cells [1]": {"test_system": "HeLa cells", "assay": "MTS cell viability assay, HeLa cells", "settings": "HeLa cells, co-treatment with MCB-613, 24 hours"}, "HeLa cells [2]": {"test_system": "HeLa cells", "assay": "Cytoplasmic vacuolization of cancer cells", "settings": "HeLa cells, co-treatment with MCB-613, 24 hours"}, "[3]": {"test_system": "TM4 Sertoli cells and GBM cancer cells", "assay": "CellTiter-Glo viability, TM4 Sertoli cells versus GBM cell lines R0315 and 4687", "settings": "72 hours, GBM R0315 and 4687 vs TM4 Sertoli", "procedure": "The effects of SYC-851 (Compound 4-8), SYC-852 (Compound 5-1), SYC-853 (Compound 5-4), and SYC-855 (Compound 7-8) on TM4 Sertoli cells and on GBM cancer cells were determined. Cells were plated as monolayer cultures and treated 24 hours later with the indicated concentration of compounds. After 72 hours, cells were harvested and assayed for viability using a CellTiter-Glo assay […]. The results for TM4 Setoli cells and for pediatric glioblastoma multiforme cell lines R0315 and 4687 and are shown in FIGS. 18A, 18B, and 18C, respectively."}, "HeLa cells [4]": {"test_system": "HeLa cells", "assay": "Western blot of stress, UPR, autophagy and apoptosis markers in HeLa cells", "settings": "co-treatment with MCB-613, 24 hours", "procedure": "For Western blotting, cells were harvested and lysed in lysis buffer (50 mM Tris, pH 8.0, 150 mM NaCl, 10% glycerol, 0.5% NP40, protease and phosphatase inhibitor) and then centrifuged for 15 min at 14000 rpm at 4° C. After total cellular protein concentration was determined by Bradford analysis (Bio-Rad, Hercules, Calif.), protein lysates were loaded onto and resolved by sodium dodecyl sulfate-polyacrylamide gel electrophoresis (SDS-PAGE) and transferred to PVDF membranes (BioRad) which were blocked and incubated with indicated antibodies. For immunoprecipitation, 10 μg of plasmid encoding FLAG-SRC-3 was transfected into HeLa cells with 90% confluence in one 10 cm plate with lipofectamine 2000 (Invitrogen). Twenty-four hours after transfection, the cells were treated with MCB-613 for one hour and lysed with lysis buffer (25 mM Tris-Cl pH7.5, 150 mM NaCl, 5% glycerol, 1 mM EDTA, 1% Triton X-100, protease and phosphatase inhibitor) at 4° C. After a 30-second sonication, the lysate was cleared by centrifugation at 14000 rpm at 4° C. for 15 minutes and was incubated with anti-Flag-M2 agarose affinity gel (Sigma) for four hours. The agarose gel was washed four times with washing buffer (25 mM Tris pH 8.0, 150 mM NaCl, 1 mM EDTA, 1% Triton X-100) and resuspended with SDS loading buffer for Western blotting."}, "[5]": {"settings": "co-treatment with MCB-613, 24 hours"}}, "note": "Peptide text beside a SMILES is read from it. * marks the point of attachment. Cbz = O=C(OCc1ccccc1)*; CH2F = FC*"}
{"smiles": "Cn1cnc(N)c2ncnc1-2", "note": "[Compound 3-MA, 3-methyladenine]", "values": [{"measurement": "effect on activation of SRC-3 by MCB-613", "setting": "SRC-3", "result": "did not inhibit"}]}
{"smiles": "CCCCC/C=C/C=C1/C(=O)C=C[C@@H]1C/C=C\\CCCC(=O)O", "note": "[Compound 15d-PGJ2, 15-deoxy-Δ^12,14-prostaglandin J2]", "values": [{"measurement": "intrinsic transcriptional activity of SRC-1", "setting": "SRC-1", "result": "robustly enhance"}, {"measurement": "intrinsic transcriptional activity of SRC-3", "setting": "SRC-3", "result": "robustly enhance"}, {"measurement": "intrinsic transcriptional activity of SRC-2", "setting": "SRC-2", "result": "robustly enhance"}]}
{"smiles": "CC(C)C[C@@H](C=O)NC(=O)[C@H](CC(C)C)NC(=O)[C@H](CC(C)C)NC(=O)OCc1ccccc1", "note": "[MG132] (Cbz-Leu-Leu-Leu-aldehyde)", "values": [{"measurement": "intrinsic transcriptional activity of SRC-1", "setting": "SRC-1", "result": "robustly enhance"}, {"measurement": "intrinsic transcriptional activity of SRC-3", "setting": "SRC-3", "result": "robustly enhance"}, {"measurement": "intrinsic transcriptional activity of SRC-2", "setting": "SRC-2", "result": "robustly enhance"}]}
{"smiles": "CC(=O)N[C@@H](CS)C(=O)O", "note": "[N-Acetyl cysteine]", "values": [{"measurement": "effect on activation of SRC-1 by MCB-613", "setting": "SRC-1; [5]", "result": "abrogate"}, {"measurement": "effect on activation of SRC-3 by MCB-613", "setting": "SRC-3", "result": "abrogate"}, {"measurement": "effect on cell death caused by MCB-613", "setting": "HeLa cells [1]", "result": "protected cells from MCB-613 mediated cytotoxicity"}, {"measurement": "effect on activation of SRC-2 by MCB-613", "setting": "SRC-2; [5]", "result": "abrogate"}, {"measurement": "effect on vacuolization induced by MCB-613", "setting": "HeLa cells [2]", "result": "blocked"}]}
{"smiles": "CO[C@@H](C(=O)N1Cc2n[nH]c(NC(=O)c3ccc(N4CCN(C)CC4)cc3)c2C1)c1ccccc1", "note": "[PHA 739358]", "values": [{"measurement": "effect on activation of SRC-3 by MCB-613", "setting": "SRC-3", "result": "significantly inhibited"}]}
{"smiles": "O=C1C(=Cc2cccnc2)COCC1=Cc1cccnc1", "note": "[SYC-851]", "values": [{"measurement": "toxicity to cancer cells compared with non-cancer cells", "setting": "[3]", "result": "more toxicity to cancer cells than to non-cancer cells"}]}
{"smiles": "CC(C)N1CC(=Cc2cccnc2)C(=O)C(=Cc2cccnc2)C1", "note": "[SYC-855]", "values": [{"measurement": "SRC-3 intrinsic transcriptional activity (luciferase)", "setting": "SRC-3; Example 6", "result": "high intrinsic transcriptional activity"}, {"measurement": "toxicity to cancer cells compared with non-cancer cells", "setting": "[3]", "result": "more toxicity to cancer cells than to non-cancer cells"}]}
{"smiles": "C[C@]12CC[C@H](O)C[C@H]1CC[C@@H]1[C@@H]2CC[C@]2(C)[C@@H](c3ccc(=O)oc3)CC[C@]12O", "note": "[bufalin, reference compound]", "values": [{"measurement": "effect on induction of ER stress (ATF4) by MCB-613", "setting": "HeLa cells [4]", "result": "completely reversed"}, {"measurement": "effect on vacuolization induced by MCB-613", "setting": "HeLa cells [2]", "result": "effectively inhibited"}]}
{"smiles": "CCN(CC)CCCC(C)Nc1ccnc2cc(Cl)ccc12", "note": "(stereo not shown) [chloroquine]", "values": [{"measurement": "effect on activation of SRC-3 by MCB-613", "setting": "SRC-3", "result": "did not inhibit"}]}
{"smiles": "COc1cc(/C=C/C(=O)CC(=O)/C=C/c2ccc(O)c(OC)c2)ccc1O", "note": "[curcumin]", "values": [{"measurement": "intrinsic transcriptional activity of SRC-1", "setting": "SRC-1", "result": "robustly enhance"}, {"measurement": "intrinsic transcriptional activity of SRC-3", "setting": "SRC-3", "result": "robustly enhance"}, {"measurement": "intrinsic transcriptional activity of SRC-2", "setting": "SRC-2", "result": "robustly enhance"}]}
{"smiles": "C[C@@H]1C[C@@H]([C@H](O)CC2CC(=O)NC(=O)C2)C(=O)[C@@H](C)C1", "note": "[cycloheximide]", "values": [{"measurement": "effect on cell death caused by MCB-613", "setting": "HeLa cells [1]", "result": "protected cells from MCB-613 mediated cytotoxicity"}, {"measurement": "effect on vacuolization induced by MCB-613", "setting": "HeLa cells [2]", "result": "blocked"}]}
{"smiles": "COC(=O)C[C@H](NC(=O)[C@H](C)NC(=O)[C@@H](NC(=O)OCc1ccccc1)C(C)C)C(=O)CF", "note": "[z-VAD-fmk] (Cbz-Val-Ala-Asp(OMe)-CH2F)", "values": [{"measurement": "effect on activation of SRC-3 by MCB-613", "setting": "SRC-3", "result": "did not inhibit"}]}
